Source: patent US20190374543A1, “Therapeutic Combinations of an Antifolate and a BTK Inhibitor” (Acerta Pharma B.V., priority 2016, published 2019)

Legend:
Type in all cases: in vivo
[1] = tested on: type II collagen arthritis; assay: histopathology of paws and knees in mouse type II collagen arthritis model; details: for Histopathology Summed Scores (All Joints): mean (SE)
From the text: (§1) On study day 43, mice were euthanized and necropsy specimens were obtained. After terminal bleeds, animals were euthanized by cervical dislocation. Fore paws, hind paws, and knees were harvested and placed in 10% neutral buffered formalin (NBF) for microscopy. Spleens were harvested from a subset of mice and processed for splenocytes.
After 1-2 days in fixative and 4-5 days in 5% formic acid for decalcification, tissues were trimmed, and processed for paraffin embedding. Paws were embedded in paraffin in the frontal plane and knees were embedded with the patella facing down. Ankles, if left attached to the hind paw, were also embedded in the frontal plane but in some instances were detached and sectioned in the sagittal plane for special purposes. Left/right pairs were typically embedded in the same block. Sections were then cut and stained with toluidine blue.
When scoring paws or ankles from mice with lesions of type II collagen arthritis, severity of changes as well as number of individual joints affected was considered. When only one to three joints of the paws or ankles out of a possibility of numerous metacarpal/metatarsal/digit or tarsal/tibiotarsal joints was affected, an arbitrary assignment of a maximum score of 0.5, 1, 2 or 3 for parameters below was given depending on severity of changes. If more than three joints were involved, the criteria below were applied to the most severely affected/majority of joints. In the case of knees, severity of changes in medial and lateral, as well as femoropatellar spaces, were considered.
The following parameters were scored according to the indicated criteria: Inflammation Score, Pannus Score, Cartilage Damage Score, Bone Resorption Score, and Periosteal New Bone Formation Score and Measurements. Unless otherwise indicated, criteria apply to both paws and knees. Mean values for each parameter are determined separately for the paws, knees, and the entire animal (if applicable).
The Inflammation Score was determined based on the following criteria for Paw Score and Knee Score.
The Paw Score was classified based on the following criteria: 0=Normal; 0.5=Very minimal, affects only 1 joint or minimal multifocal periarticular infiltration of inflammatory cells; 1=Minimal infiltration of inflammatory cells in synovium and periarticular tissue of affected joints; 2=Mild infiltration of inflammatory cells. If referring to paws, generally restricted to affected joints (1-3 affected); 3=Moderate infiltration with moderate edema. If referring to paws, restricted to affected joints, generally 3-4 joints and the wrist or ankle; 4=Marked infiltration affecting most areas with marked edema, 1 or 2 unaffected joints may be present; 5=Severe diffuse infiltration with severe edema affecting all joints (to some extent) and periarticular tissues.
The Knee Score was classified based on the following criteria: 0=Normal; 0.5=Very minimal, affects only one area of the synovium or minimal multifocal periarticular infiltration of inflammatory cells; 1=Minimal infiltration of inflammatory cells in synovium and periarticular tissue of affected synovial areas; 2=Mild diffuse infiltration of inflammatory cells; 3=Moderate diffuse infiltration of inflammatory cells; 4=Marked diffuse infiltration of inflammatory cells; 5=Severe diffuse infiltration of inflammatory cells.
The inflammatory infiltrate in mice and rats with type II collagen arthritis consists of neutrophils and macrophages with smaller numbers of lymphocytes when the lesions are in the acute to subacute phase. Tissue edema and neutrophil exudates within the joint space are common in the acute to subacute phase. As the inflammation progresses to chronic, mononuclear inflammatory cells (monocytes, lymphocytes) predominate and fibroblast proliferation, often with deposition of metachromatic matrix, occurs in synovium and periarticular tissue. Exudate is less common in the joint space.

[2] = tested on: type II collagen arthritis; assay: mouse type II collagen arthritis model: body weight, daily clinical arthritis scores (AUC), incidence
BTK = molecular target: T1, BTK (Mus musculus, UniProt P35991); assay: BTK occupancy in splenocytes collected after euthanasia; details: with vs without MTX co-treatment
T1 construct: from tissue; host or cells: splenocytes from spleens of collagen-induced-arthritis DBA/1 mice
From the text: as §1

[3] = Group 5: MTX 0.3 mg/kg PO QD d18-43 + BTK inhibitor of formula (2) vehicle
[4] = Group 6: MTX 0.5 mg/kg PO QD d18-43 + BTK inhibitor of formula (2) vehicle
[5] = 5 mg/kg Formula (2) alone, vs vehicle controls
[6] = Group 3: MTX vehicle + BTK inhibitor of formula (2) 1 mg/kg PO QD d28-43
[7] = Group 4: MTX vehicle + BTK inhibitor of formula (2) 5 mg/kg PO QD d28-43

T1 sequence (P35991 whole entry): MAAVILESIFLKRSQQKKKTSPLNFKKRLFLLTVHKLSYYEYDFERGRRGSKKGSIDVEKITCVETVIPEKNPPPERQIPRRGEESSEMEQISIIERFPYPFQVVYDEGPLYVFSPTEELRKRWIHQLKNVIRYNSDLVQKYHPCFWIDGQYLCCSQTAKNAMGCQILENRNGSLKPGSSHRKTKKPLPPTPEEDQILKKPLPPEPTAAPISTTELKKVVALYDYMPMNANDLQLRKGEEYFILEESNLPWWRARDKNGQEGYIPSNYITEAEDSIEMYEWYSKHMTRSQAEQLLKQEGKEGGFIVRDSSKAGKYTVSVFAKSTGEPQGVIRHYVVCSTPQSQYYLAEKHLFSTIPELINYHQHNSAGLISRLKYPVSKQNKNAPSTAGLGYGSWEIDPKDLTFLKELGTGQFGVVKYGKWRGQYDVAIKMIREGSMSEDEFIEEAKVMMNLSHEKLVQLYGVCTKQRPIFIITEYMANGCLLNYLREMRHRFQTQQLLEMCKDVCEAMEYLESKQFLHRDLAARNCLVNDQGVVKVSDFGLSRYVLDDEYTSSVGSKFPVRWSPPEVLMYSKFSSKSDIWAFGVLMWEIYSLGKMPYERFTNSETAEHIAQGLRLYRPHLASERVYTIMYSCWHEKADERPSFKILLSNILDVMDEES

CN(Cc1cnc2nc(N)nc(N)c2n1)c1ccc(C(=O)N[C@@H](CCC(=O)O)C(=O)O)cc1 [MTX, (2S)-2-[(4-{[(2,4-Diaminopteridin-6-yl)methyl](methyl)amino}benzoyl)amino]pentanedioic acid, reference compound]
Histopathology Summed Scores (All Joints) [1, 3]: 10.24 (1.66) | Histopathology Summed Scores (All Joints) [1, 4]: 8.46 (1.36) | daily clinical arthritis scores over time ([2]; 0.5 mg/kg MTX alone, vs vehicle controls): differed significantly | clinical arthritis scores ([2]; 0.5 mg/kg MTX, vs vehicle controls, Days 25-29): significantly reduced | Change in Body Weight (g) Day 18-43 [2, 3]: -1.16 g | Clinical Arthritis Score AUC Day 18-43 [2, 3]: 51.72 | Clinical Arthritis Score AUC Day 28-43 [2, 3]: 48.82 | Percent Incidence [2, 3]: 100% | Change in Body Weight (g) Day 18-43 [2, 4]: -0.83 g | Clinical Arthritis Score AUC Day 18-43 [2, 4]: 46.79 | Clinical Arthritis Score AUC Day 28-43 [2, 4]: 45.51 | Percent Incidence [2, 4]: 100%

CC#CC(=O)N1CCC[C@H]1c1nc(-c2ccc(C(=O)Nc3ccccn3)cc2)c2c(N)nccn12 [BTK inhibitor of Formula (2), (S)-4-(8-amino-3-(1-(but-2-ynoyl)pyrrolidin-2-yl)imidazo[1,5-c]pyrazin-1-yl)-N-(pyridin-2-yl)benzamide]
Btk occupancy in splenocytes (BTK): the same in the presence or absence of MTX | reduction of knee bone resorption [1, 5]: 90% | reduction of knee inflammation [1, 5]: 72% | reduction of knee pannus formation [1, 5]: 85% | reduction of summed knee histopathology scores [1, 5]: 74% | reduction of summed paw histopathology scores [1, 5]: 72% | reduction of summed six-joint mean histopathology scores [1, 5]: 73% | reductions of all paw histopathology parameters [1, 5]: 59-82% | reductions of all six-joint mean histopathology parameters [1, 5]: 63-82% | reductions of paw and six-joint mean periosteal bone widths [1, 5]: 82-83% | Histopathology Summed Scores (All Joints) [1, 6]: 11.03 (1.01) | Histopathology Summed Scores (All Joints) [1, 7]: *4.15 (1.01) | disease-induced body weight loss (percent change from baseline) ([2]; 1 mg/kg Formula (2), vs vehicle controls, Day 36): significantly inhibited | daily clinical arthritis scores over time [2, 5]: differed significantly | inhibition of absolute body weight loss at study termination [2, 5]: 66% | reduction of arthritis scores AUC Days 18-43 [2, 5]: 62% | disease-induced body weight loss (percent change from baseline) ([2]; 5 mg/kg Formula (2), vs vehicle controls, Days 32-38 and 43): significantly inhibited | clinical arthritis scores ([2]; 5 mg/kg Formula (2), vs vehicle controls, Study Days 30-43): significantly reduced | Change in Body Weight (g) Day 18-43 [2, 6]: -0.19 g | Clinical Arthritis Score AUC Day 18-43 [2, 6]: 61.41 | Clinical Arthritis Score AUC Day 28-43 [2, 6]: 54.81 | Percent Incidence [2, 6]: 100% | Change in Body Weight (g) Day 18-43 [2, 7]: *0.12 g | Clinical Arthritis Score AUC Day 18-43 [2, 7]: *27.30 | Clinical Arthritis Score AUC Day 28-43 [2, 7]: *21.27 | Percent Incidence ([2]; Group 4: MTX vehicle + BTK inhibitor of formula (2) 5 mg/kg PO QD d28-43, at termination, 5 mg/kg): 42% | Percent Incidence ([2]; Group 4: MTX vehicle + BTK inhibitor of formula (2) 5 mg/kg PO QD d28-43, at termination, listed as BTK inhibitor of formula (2), 5 mg/kg): 42%
